Source: ChEMBL document CHEMBL4118195, “Synthesis and profiling of benzylmorpholine 1,2,4,5-tetraoxane analogue N205: Towards tetraoxane scaffolds with potential for single dose cure of malaria” (Bioorg Med Chem, 2018)
pIC50: −log10 of the molar value.

Key:
[1] = Drug degradation in rat liver microsomes assessed as compound half life at 1 uM by UPLC-MS method; format: ADME, microsome
[2] = AUC (0 to t) in humanized NOD.Cg-Prkdcscid Il2rgtm1Wjl/SzJ mouse infected with Plasmodium falciparum Pf3D70087/N9 at 50 mg/kg, po administered as single dose by LC-MS/MS analysis; format: ADME, organism-based; details: in vivo
[3] = Drug metabolism in mouse liver microsomes assessed as ring dehydrogenated metabolite formation at 5 uM after 60 mins by UPLC-MS analysis; format: ADME, microsome; details: 1 h
Mus musculus [4] = assay: Dose normalized Cmax in humanized NOD.Cg-Prkdcscid Il2rgtm1Wjl/SzJ mouse infected with Plasmodium falciparum Pf3D70087/N9 at 30 mg/kg, po administered as single dose after 0.25 to 23 hrs by LC-MS/MS analysis; format: ADME, organism-based; details: in vivo
[5] = Drug metabolism in mouse liver microsomes at 5 uM after 60 mins by UPLC-MS analysis; format: ADME, microsome; details: read-out: Drug metabolism
[6] = AUC (0 to t) in humanized NOD.Cg-Prkdcscid Il2rgtm1Wjl/SzJ mouse infected with Plasmodium falciparum Pf3D70087/N9 at 100 mg/kg, po administered as single dose by LC-MS/MS analysis; format: ADME, organism-based; details: in vivo
[7] = AUC (0 to t) in humanized NOD.Cg-Prkdcscid Il2rgtm1Wjl/SzJ mouse infected with Plasmodium falciparum Pf3D70087/N9 at 15 mg/kg, po administered as single dose by LC-MS/MS analysis; format: ADME, organism-based; details: in vivo
[8] = Drug metabolism in mouse liver microsomes assessed as morpholine ring opened metabolite formation at 5 uM after 60 mins by UPLC-MS analysis; format: ADME, microsome; details: 1 h
Plasmodium berghei = assay: Antimalarial activity against Plasmodium berghei infected in mouse assessed as mouse mean survival days at 30 mg/kg, po administered as single dose; format: functional
[9] = Intrinsic clearance in human liver microsomes assessed per mg protein at 5 uM by UPLC-MS analysis; format: ADME, microsome; details: read-out: CLH
[10] = Drug metabolism in rat liver microsomes assessed as metabolite 4-(4-(morpholinomethyl)phenyl)cyclohexanol formation at 5 uM after 60 mins by UPLC-MS analysis; format: ADME, microsome; details: 1 h
[11] = Cmax in humanized NOD.Cg-Prkdcscid Il2rgtm1Wjl/SzJ mouse infected with Plasmodium falciparum Pf3D70087/N9 at 50 mg/kg, po administered as single dose after 0.25 to 23 hrs by LC-MS/MS analysis; format: ADME, organism-based; design: dose 50 mg/kg, route oral; details: in vivo
[12] = Drug metabolism in mouse liver microsomes assessed as metabolite M+16 (IV) formation at 5 uM after 60 mins by UPLC-MS analysis; format: ADME, microsome; details: 1 h
[13] = Drug metabolism in human liver microsomes assessed as ring dehydrogenated metabolite formation at 5 uM after 60 mins by UPLC-MS analysis; format: ADME, microsome; details: 1 h
[14] = Drug metabolism in mouse liver microsomes assessed as deaminated morpholine acid metabolite formation at 5 uM after 60 mins by UPLC-MS analysis; format: ADME, microsome; details: 1 h
[15] = Drug metabolism in rat liver microsomes assessed as cleaved morpholine ring metabolite formation at 5 uM after 60 mins by UPLC-MS analysis; format: ADME, microsome; details: 1 h
[16] = Drug metabolism in rat liver microsomes assessed as morpholine ring opened metabolite formation at 5 uM after 60 mins by UPLC-MS analysis; format: ADME, microsome; details: 1 h
Mus musculus [17] = assay: Dose normalized AUC (0 to t) in humanized NOD.Cg-Prkdcscid Il2rgtm1Wjl/SzJ mouse infected with Plasmodium falciparum Pf3D70087/N9 at 50 mg/kg, po administered as single dose by LC-MS/MS analysis; format: ADME, organism-based; details: in vivo
[18] = Drug metabolism in human liver microsomes assessed as deaminated morpholine metabolite formation at 5 uM after 60 mins by UPLC-MS analysis; format: ADME, microsome; details: 1 h
[19] = Drug degradation in mouse liver microsomes assessed as compound half life at 5 uM by UPLC-MS method; format: ADME, microsome
[20] = Drug metabolism in mouse liver microsomes assessed as open morpholine ring metabolite formation at 5 uM after 60 mins by UPLC-MS analysis; format: ADME, microsome; details: 1 h
Plasmodium falciparum = assay: Antimalarial activity against Plasmodium falciparum 3D7 infected in human erythrocytes after 48 hrs by SYBR Green I dye-based fluorescence assay; format: functional, organism-based; details: 3D7, 48 h
[21] = Intrinsic clearance in rat liver microsomes assessed per mg protein at 1 uM by UPLC-MS analysis; format: ADME, microsome; details: read-out: CLH
[22] = Drug metabolism in human liver microsomes assessed as metabolite M+16 (V) formation at 5 uM after 60 mins by UPLC-MS analysis; format: ADME, microsome; details: 1 h
[23] = Drug degradation in human liver microsomes assessed as compound half life at 1 uM by UPLC-MS method; format: ADME, microsome
[24] = Cmax in humanized NOD.Cg-Prkdcscid Il2rgtm1Wjl/SzJ mouse infected with Plasmodium falciparum Pf3D70087/N9 at 15 mg/kg, po administered as single dose after 0.25 to 23 hrs by LC-MS/MS analysis; format: ADME, organism-based; design: dose 15 mg/kg, route oral; details: in vivo
Mus musculus [25] = assay: Dose normalized AUC (0 to t) in humanized NOD.Cg-Prkdcscid Il2rgtm1Wjl/SzJ mouse infected with Plasmodium falciparum Pf3D70087/N9 at 30 mg/kg, po administered as single dose by LC-MS/MS analysis; format: ADME, organism-based; details: in vivo
[26] = Drug metabolism in human liver microsomes assessed as morpholine dealkylated metabolite formation at 5 uM after 60 mins by UPLC-MS analysis; format: ADME, microsome; details: 1 h
[27] = Intrinsic clearance in rat liver microsomes assessed per mg protein at 5 uM by UPLC-MS analysis; format: ADME, microsome; details: read-out: CLH
[28] = Drug metabolism in human liver microsomes assessed as cleaved morpholine ring metabolite formation at 5 uM after 60 mins by UPLC-MS analysis; format: ADME, microsome; details: 1 h
[29] = Drug metabolism in human liver microsomes assessed as metabolite M+32 (II) formation at 5 uM after 60 mins by UPLC-MS analysis; format: ADME, microsome; details: 1 h
[30] = Drug metabolism in rat liver microsomes assessed as deaminated morpholine metabolite formation at 5 uM after 60 mins by UPLC-MS analysis; format: ADME, microsome; details: 1 h
[31] = Metabolic stability in rat blood after 2 to 4 hrs by LC-MS method; format: ADME, tissue-based
Mus musculus [32] = assay: Dose normalized AUC (0 to t) in humanized NOD.Cg-Prkdcscid Il2rgtm1Wjl/SzJ mouse infected with Plasmodium falciparum Pf3D70087/N9 at 15 mg/kg, po administered as single dose by LC-MS/MS analysis; format: ADME, organism-based; details: in vivo
Mus musculus [33] = assay: Dose normalized AUC (0 to t) in humanized NOD.Cg-Prkdcscid Il2rgtm1Wjl/SzJ mouse infected with Plasmodium falciparum Pf3D70087/N9 at 5 mg/kg, po administered as single dose by LC-MS/MS analysis; format: ADME, organism-based; details: in vivo
[34] = Drug metabolism in rat liver microsomes assessed as mono-oxygenation and dehydrogenation metabolite formation at 5 uM after 60 mins by UPLC-MS analysis; format: ADME, microsome; details: 1 h
[35] = Intrinsic clearance in mouse liver microsomes assessed per mg protein at 5 uM by UPLC-MS analysis; format: ADME, microsome; details: read-out: CLH
[36] = Drug degradation in mouse liver microsomes assessed as compound half life at 1 uM by UPLC-MS method; format: ADME, microsome
[37] = Retention time of the compound; format: physicochemical
[38] = Drug metabolism in rat liver microsomes at 5 uM after 60 mins by UPLC-MS analysis; format: ADME, microsome; details: read-out: Drug metabolism

With c1cc(C2CCC3(CC2)OOC2(OO3)C3CC4CC(C3)CC2C4)ccc1CN1CCOCC1 (stereo not given) the half-life at 1 µM [1] was 15 min, the AUC(0-t) [2] was 3000 ng·h/mL and the Drug metabolism [3] was “Metabolite_Notdetected”. It also gave a Cmax/dose (Mus musculus [4]) of 0.0049 µg/mL/mg/kg, a metabolised at 1 h, 5 µM [5] of 39% and an AUC(0-t) [6] of 2320 ng·h/mL. The AUC(0-t) [7] was 749 ng·h/mL, the Drug metabolism [8] was “Metabolite_Notdetected” and the MSD (Plasmodium berghei) was 26.3 days. For the same molecule, the microsomal CLint at 5 µM [9] was 41 µL/min/mg, the Drug metabolism [10] was “Metabolite_Detected” and the Cmax [11] was 607 ng/mL. The Drug metabolism [12] was “Metabolite_Detected”, the Drug metabolism [13] was “Metabolite_Notdetected” and the Drug metabolism [14] was “Metabolite_Notdetected”. For the same molecule, the Drug metabolism [15] was “Metabolite_Notdetected”, the Drug metabolism [16] was “Metabolite_Notdetected” and the AUCt/dose (Mus musculus [17]) was 0.0599 µg·h/mL/mg/kg. For the same molecule, the Drug metabolism [18] was “Metabolite_Notdetected”, the half-life at 5 µM [19] was 87 min and the Drug metabolism [20] was “Metabolite_Notdetected”. The pIC50 (Plasmodium falciparum) was 8.89, the microsomal CLint at 1 µM [21] was 118 µL/min/mg and the Drug metabolism [22] was “Metabolite_Detected”. The half-life at 1 µM [23] was 34 min, the Cmax [24] was 148 ng/mL and the AUCt/dose (Mus musculus [25]) was 0.0313 µg·h/mL/mg/kg. The Drug metabolism [26] was “Metabolite_Notdetected”, the microsomal CLint at 5 µM [27] was 89 µL/min/mg and the Drug metabolism [28] was “Metabolite_Notdetected”. For the same molecule, the Drug metabolism [29] was “Metabolite_Notdetected”, the Drug metabolism [30] was “Metabolite_Notdetected” and the Stability [31] was “Stable”. For the same molecule, the AUCt/dose (Mus musculus [32]) was 0.0499 µg·h/mL/mg/kg, the AUCt/dose (Mus musculus [33]) was 0.256 µg·h/mL/mg/kg and the Drug metabolism [34] was “Metabolite_Notdetected”. For the same molecule, the microsomal CLint at 5 µM [35] was 20 µL/min/mg, the half-life at 1 µM [36] was 48 min and the Retention_time [37] was 3.68 min. The metabolised at 1 h, 5 µM [38] was 82%.
